Source: patent US9409952B2, “Peptide-compound cyclization method” (Chugai Seiyaku Kabushiki Kaisha, priority 2011, dated 2016)
Read-outs that look alike come from different tables or passages of the source. Starred links: 1 amine or outer side, 2 acyl side, 3 side chain; linkers in the order of their positions; H or OH if unused. Positions of bridges follow the written chain, without caps; N, C: chain ends. Non-standard residues stand in square brackets, D forms with d. Residues, ends and D or L forms follow the SMILES beside them. *: point of attachment. Arg(Me2s) = CN=C(NC)NCCC[C@H](N)C(=O)O; Lys(Me2) = CN(C)CCCC[C@H](N)C(=O)O; NMeF = CN[C@@H](Cc1ccccc1)C(=O)O; NMeI = CC[C@H](C)[C@H](NC)C(=O)O; NMeβAla = CN(CCC(=O)[*:2])[*:1]; AllylGly = C=CC[C@H](N)C(=O)O; NMeL = CN[C@@H](CC(C)C)C(=O)O; NMeV = CN[C@H](C(=O)O)C(C)C; NMeA = CN[C@@H](C)C(=O)O; Piperidide = C1CCN(*)CC1; dNMeA = CN[C@H](C)C(=O)O; Sar = CNCC(=O)O

Legend:
[1] = PAMPA (parallel artificial membrane permeability assay); assay type: in vitro ADME
Method: 4 μL of a phospholipid-organic solvent solution composed of 10% (w/v) of egg lecithin, 0.5% (w/v) of cholesterol and dodecane (all purchased from Fluka) was added to a Millipore 96-well membrane filter (hydrophobic PVDF (polyvinylidene difluoride), pore size 0.45 microm) (purchased from Millipore Japan) to make an artificial phospholipid membrane.
A DMSO solution containing the compound at a concentration of 10 mM was added in a percentage of 0.5% (v/v) to a 50 mM MOPSO buffer, pH 6.5, containing 5.0% (w/v) of glycocholic acid, and 330 μL of the mixture was added to a 96-well plate made of Teflon (donor plate). The above artificial phospholipid membrane plate was attached onto the donor plate, and 280 μL of a solution obtained by adding DMSO in a percentage of 0.5% (v/v) to a 50 mM MOPSO buffer, pH 6.5, containing 5.0% (w/w) of glycocholic acid was added onto the artificial phospholipid membrane (acceptor plate). These plates were allowed to stand at 37° C. for 18 hours, after which the concentrations of the compound in the solutions in the donor plate and the acceptor plate were measured by LC/MS or LC/UV, and the membrane permeation rate of the compound (Pe) was calculated by the following formulas (1) and (2), where t is the testing time, A is the membrane filter area, VD is the amount of the donor solution, VA is the amount of the acceptor solution, CD,t is the concentration of the compound in the donor solution at the time t, and CA,t is the concentration of the compound in the acceptor solution at the time t.

[2] = Metabolic stability in human hepatic microsome; assay type: in vitro ADME; details: microsomes
[3] = PAMPA, membrane permeation rate (Pe), 50 mM MOPSO buffer pH 6.5 with 5.0% glycocholic acid, 37° C., 18 hours, read-out: iPAMPA Pe
[4] = pH 7.4, human hepatic microsome, NADPH(+), read-out: CL NADPH(+)

CC[C@H](C)[C@@H]1NC(=O)[C@H](C)N(C)C(=O)C[C@@H](C(=O)N(C)[C@@H](Cc2ccccc2)C(=O)N[C@@H](C)C(=O)N2CCCCC2)NC(=O)[C@H](Cc2ccccc2)N(C)C(=O)CN(C)C(=O)[C@H]([C@@H](C)O)NC(=O)[C@H](C)N(C)C(=O)[C@H](C(C)C)N(C)C(=O)[C@H](CC(C)C)N(C)C(=O)[C@H](Cc2ccccc2)NC(=O)[C@H](CC(C)C)N(C)C1=O [DP-279] ([NMeA]I[NMeL]F[NMeL][NMeV][NMeA]T[Sar][NMeF]D[NMeF]A-Piperidide; lactam N-11)
Papp at 18 hours, 50 µM ([1]; PAMPA, pH 6.5): 15 ×10⁻⁶ cm/s

CC[C@H](C)[C@H]1C(=O)N[C@@H]([C@@H](C)O)C(=O)N[C@@H](Cc2ccccc2)C(=O)N2CCC[C@H]2C(=O)NCC(=O)N(C)[C@@H](CC(C)C)C(=O)N[C@H](C(=O)N(C)[C@@H](Cc2ccccc2)C(=O)N[C@@H](C)C(=O)N2CCCCC2)CC(=O)N[C@H](C(C)C)C(=O)N[C@@H](Cc2ccccc2)C(=O)N(C)[C@@H](CC(C)C)C(=O)N[C@@H](CC(C)C)C(=O)N1C [DP-278] ([dV]F[NMeL]L[NMeI]TFPG[NMeL]D[NMeF]A-Piperidide; lactam N-11)
Papp at 18 hours, 50 µM ([1]; PAMPA, pH 6.5): 1.5 ×10⁻⁶ cm/s

CC(C)C[C@@H]1NC(=O)[C@H](Cc2ccccc2)N(C)C(=O)CCN(C)C(=O)C[C@@H](C(=O)N2CCCCC2)NC(=O)[C@H](Cc2ccccc2)N(C)C(=O)[C@H](C)N(C)C(=O)[C@H]([C@@H](C)O)NC(=O)CN(C)C(=O)[C@H](C(C)C)N(C)C(=O)[C@H](C)NC(=O)[C@H](C(C)C)N(C)C(=O)[C@H](CC(C)C)N(C)C1=O [DP-318] ([NMeβAla][NMeF]L[NMeL][NMeV]A[NMeV][Sar]T[NMeA][NMeF]D-Piperidide; lactam N-12)
Papp at 18 hours, 50 µM [1, 3]: 26 ×10⁻⁶ cm/s

NS(=O)(=O)c1cc2c(cc1Cl)NCNS2(=O)=O [hydrochlorothiazide, reference compound]
Papp at 18 h, 50 µM ([1]; PAMPA): 0.6 ×10⁻⁶ cm/s

CC(C)C[C@@H]1NC(=O)CN(C)C(=O)[C@H](CCCCN(C)C)NC(=O)[C@H](CC(C)C)N(C)C(=O)[C@H](Cc2ccccc2)N(C)C(=O)[C@H](C)N(C)C(=O)[C@@H](C(C)C)NC(=O)C[C@@H](C(=O)N(C)[C@@H](Cc2ccccc2)C(=O)N[C@@H](C)C(=O)N2CCCCC2)NC(=O)[C@H](CC(C)C)N(C)C(=O)[C@H](CC(C)C)N(C)C1=O [DP-587] ([dV][NMeA][NMeF][NMeL][Lys(Me2)][Sar]L[NMeL][NMeL]D[NMeF]A-Piperidide; lactam N-10)
Papp at 18 hours, 50 µM [1, 3]: 3.3 ×10⁻⁶ cm/s

CC[C@H](C)[C@H](NC(=O)[C@H](CC(C)C)NC(=O)[C@H](Cc1ccccc1)NC(=O)[C@@H]1CCCN1C(=O)[C@H](CC(C)C)NC(=O)[C@@H]1CC(=O)N[C@@H](Cc2ccccc2)C(=O)N(C)[C@@H](Cc2ccccc2)C(=O)N(C)[C@@H](CC(C)C)C(=O)N[C@@H]([C@@H](C)O)C(=O)N(C)[C@@H](C)C(=O)N(C)[C@@H](CC(C)C)C(=O)N1)C(=O)N1CCCCC1 [DP-910] (F[NMeF][NMeL]T[NMeA][NMeL]DLPFLI-Piperidide; lactam N-7)
Papp at 18 hours, 50 µM [1, 3]: 0.16 ×10⁻⁶ cm/s

CC[C@H](C)[C@@H]1NC(=O)[C@H](CC(C)C)N(C)C(=O)[C@H](CC(C)C)N(C)C(=O)[C@H](C)N(C)C(=O)[C@H]([C@@H](C)O)NC(=O)[C@H](Cc2ccccc2)N(C)C(=O)[C@@H](C)N(C)C(=O)C[C@@H](C(=O)N(C)[C@@H](Cc2ccccc2)C(=O)N(C)[C@@H](Cc2ccccc2)C(=O)N[C@@H](C)C(=O)N2CCCCC2)NC(=O)[C@H](C(C)C)N(C)C1=O [DP-399] ([dNMeA][NMeF]T[NMeA][NMeL][NMeL]I[NMeV]D[NMeF][NMeF]A-Piperidide; lactam N-9)
Papp at 18 hours, 50 µM [1, 3]: 0.89 ×10⁻⁶ cm/s

CC[C@H](C)[C@H]1C(=O)N[C@H](C(=O)N2CCCCC2)CC(=O)N(C)CC(=O)N(C)[C@@H](CC(C)C)C(=O)N[C@@H](C)C(=O)N(C)[C@@H](CC(C)C)C(=O)N(C)[C@@H](Cc2ccccc2)C(=O)N(C)[C@@H](CC(C)C)C(=O)N(C)[C@@H](Cc2ccccc2)C(=O)N[C@@H]([C@@H](C)O)C(=O)N(C)[C@@H](C)C(=O)N1C [DP-70] ([Sar][NMeL]A[NMeL][NMeF][NMeL][NMeF]T[NMeA][NMeI]D-Piperidide; lactam N-11)
Papp at 18 hours, 50 µM ([1]; PAMPA, pH 6.5): 40 ×10⁻⁶ cm/s

CC[C@H](C)[C@@H]1NC(=O)[C@@H](C)N(C)C(=O)C[C@@H](C(=O)N(C)[C@@H](Cc2ccccc2)C(=O)N[C@@H](C)C(=O)N2CCCCC2)NC(=O)[C@H](Cc2ccccc2)NC(=O)[C@H]([C@@H](C)O)NC(=O)[C@@H]2CCCN2C(=O)CNC(=O)[C@H](CC(C)C)N(C)C(=O)[C@H](Cc2ccccc2)N(C)C(=O)[C@H](CC(C)C)N(C)C(=O)[C@H](CC(C)C)NC1=O [DP-283] ([dNMeA]IL[NMeL][NMeF][NMeL]GPTFD[NMeF]A-Piperidide; lactam N-11)
Papp at 18 hours, 50 µM ([1]; PAMPA, pH 6.5): 1.5 ×10⁻⁶ cm/s

C/N=C(\NC)NCCC[C@@H]1NC(=O)[C@H](Cc2ccccc2)N(C)C(=O)[C@H](CC(C)C)NC(=O)[C@H](CC(C)C)N(C)C(=O)[C@H](Cc2ccccc2)NC(=O)[C@H](CC(C)C)N(C)C(=O)[C@H](CC(C)C)N(C)C(=O)[C@H](Cc2ccccc2)NC(=O)CN(C)C(=O)C[C@@H](C(=O)N(C)[C@@H](Cc2ccccc2)C(=O)N[C@@H](C)C(=O)N2CCCCC2)NC(=O)[C@H](CC(C)C)NC1=O [DP-598] ([Sar]F[NMeL][NMeL]F[NMeL]L[NMeF][Arg(Me2s)]LD[NMeF]A-Piperidide; lactam N-11)
iPAMPA Pe ([1]; membrane permeation rate (Pe), 50 mM MOPSO buffer pH 6.5 with 5.0% glycocholic acid, 37° C., 18 hours): 1.0E−07

CC[C@H](C)[C@@H]1NC(=O)[C@H](CC(C)C)N(C)C(=O)[C@H](Cc2ccccc2)N(C)C(=O)[C@H]([C@@H](C)O)NC(=O)[C@H](CC(C)C)N(C)C(=O)[C@H](CC(C)C)N(C)C(=O)[C@H](C)N(C)C(=O)C[C@@H](C(=O)N2CCCCC2)NC(=O)[C@H](CC(C)C)NC(=O)[C@H](Cc2ccccc2)N(C)C(=O)[C@H](C)N(C)C1=O [DP-154] ([NMeA][NMeL][NMeL]T[NMeF][NMeL]I[NMeA][NMeF]LD-Piperidide; lactam N-11)
Papp at 18 hours, 50 µM ([1]; PAMPA, pH 6.5): 9.3 ×10⁻⁶ cm/s

C=CC[C@@H]1NC(=O)[C@H](CC(C)C)N(C)C(=O)[C@H](C)N(C)C(=O)[C@@H](C(C)C)NC(=O)C[C@@H](C(=O)N2CCCCC2)NC(=O)[C@H]([C@@H](C)O)NC(=O)[C@H](CC(C)C)N(C)C(=O)[C@H](C)N(C)C(=O)[C@H](CC(C)C)N(C)C(=O)[C@H](Cc2ccccc2)NC(=O)[C@H](Cc2ccccc2)N(C)C1=O [DP-628] ([dV][NMeA][NMeL][AllylGly][NMeF]F[NMeL][NMeA][NMeL]TD-Piperidide; lactam N-11)
microsomal CLint at 1 uM [2, 4]: 36 µL/min/mg

CC(C)C[C@@H]1NC(=O)[C@H](CC(C)C)N(C)C(=O)[C@H](C)N(C)C(=O)[C@H](C(C)C)NC(=O)[C@H](Cc2ccccc2)NC(=O)CNC(=O)[C@H]([C@@H](C)O)NC(=O)[C@H](CC(C)C)NC(=O)[C@@H]2CCCN2C(=O)[C@H](Cc2ccccc2)NC(=O)[C@H](C)NC(=O)C[C@@H](C(=O)N2CCCCC2)NC1=O [DP-23] (AFPLTGFV[NMeA][NMeL]LD-Piperidide; lactam N-12)
microsomal CLint at 1 uM ([2]; human, pH 7.4, CL NADPH(+)): 105 µL/min/mg

CC(C)C[C@@H]1NC(=O)[C@H](C)N(C)C(=O)[C@H](C(C)C)N(C)C(=O)[C@H](Cc2ccccc2)NC(=O)CN(C)C(=O)[C@H]([C@@H](C)O)NC(=O)[C@@H]2CCCN2C(=O)[C@H](CC(C)C)NC(=O)[C@H](C)NC(=O)C[C@@H](C(=O)N2CCCCC2)NC(=O)[C@H](CC(C)C)N(C)C1=O [DP-32] (ALPT[Sar]F[NMeV][NMeA]L[NMeL]D-Piperidide; lactam N-11)
microsomal CLint at 1 uM ([2]; human, pH 7.4, CL NADPH(+)): 26 µL/min/mg

CC[C@H](C)[C@@H]1NC(=O)[C@H](Cc2ccccc2)N(C)C(=O)[C@@H](C)NC(=O)C[C@@H](C(=O)N2CCCCC2)NC(=O)[C@H](C(C)C)NC(=O)CN(C)C(=O)[C@H]([C@@H](C)O)NC1=O [DP-674] ([dA][NMeF]IT[Sar]VD-Piperidide; lactam N-7)
microsomal CLint at 1 uM [2, 4]: 10 µL/min/mg
